“Also recorded” adds a separate entry of the source.
Columns and labels:
Format in all cases: cell-based, human
[1] = system: retinal endothelial cells (REC); test: VEGF-induced REC proliferation, WST-1 metabolic assay
Method: To investigate the potential of compound (II-4) affecting the proliferative capacity of RECs treated with VEGF, proliferation was measured using the metabolic assay based on the tetrazolium salt, WST-1. […] To rule out the possibility that this observation was related to cytotoxicity, RECs were incubated with a high concentration of compound (II-4) (1 μM) for 24 hours. Cells were harvested and apoptosis measured with Annexin-V/Propidium Iodide (PI) staining and analyzed using flow cytometry.
FIG. 18: REC Proliferation and Flow cytometry analysis of apoptosis in REC. A) VEGF-induced cellular proliferation was assessed using the WST-1 metabolic assay. […] (*P<0.0001). Nuclei were stained with DRAQ5 and imaged to show trend of decreasing proliferation. B) Apoptosis was measured using Annexin V/PI staining Compound (II-4) (1 μM) appears to be non-cytotoxic to retinal endothelial cells after 24 hour incubation (n≈10,000 cells).
FIG. 21: REC Proliferation. […] (*, # P<0.001; Mean±SD, N=8/group).

[2] = system: retinal endothelial cells (REC); test: Annexin V/PI apoptosis analysis by flow cytometry in REC
Method: Harvested cells were washed twice with cold PBS/2% FBS. Pelleted cells were resuspended in Annexin V Binding Buffer (BioLegend, San Diego, Calif.) at a concentration of 5.0×10^6 cells/mL following manufacturer's instructions. 5.0×10^5 cells (100 μL) were labeled with 5 μL of FITC Annexin V and 10 μL of Propidium Iodide (PI) solution. Cells were vortexed gently and incubated for 15 minutes at RT in dark. 300 μL of Annexin V Binding Buffer were added to each sample tube and analyzed in BD LSRII Flow Cytometry Analyzer (BD Biosciences, San Jose, Calif.). Apoptotic cells were defined as Annexin V^+PI^neg while necrotic cells are defined as Annexin V^+PI^+. […]
To investigate the potential of compound (II-4) affecting the proliferative capacity of RECs treated with VEGF, proliferation was measured using the metabolic assay based on the tetrazolium salt, WST-1. […] Cells were harvested and apoptosis measured with Annexin-V/Propidium Iodide (PI) staining and analyzed using flow cytometry.
FIG. 18: REC Proliferation and Flow cytometry analysis of apoptosis in REC. A) VEGF-induced cellular proliferation was assessed using the WST-1 metabolic assay. […] B) Apoptosis was measured using Annexin V/PI staining Compound (II-4) (1 μM) appears to be non-cytotoxic to retinal endothelial cells after 24 hour incubation (n≈10,000 cells).

[3] = system: FAK (Y397, Y576/577, Y925); test: Western blot of VEGF-induced FAK phosphorylation in REC; settings: REC under VEGF; compound (II-4) 500 nM, SU6656 1 μM
Method: REC, Mel 270, OMM 2.5 under Hepatocyte Growth Factor (HGF) or Vascular Endothelial Growth Factor (VEGF) stimulation conditions: Cell lysates were collected in RIPA lysis buffer (50 mM Tris-HCl, pH 7.4, 150 mM NaCl, 2 mM EDTA, 1% Nonidet P-40, 0.1% SDS) with protease 1× inhibitor cocktail (Roche; Indianapolis, Ind.). Lysates were kept on ice and centrifuged at 10,000×g×10 minutes and total protein was measured using the BCA assay (Pierce, Rockford, Ill.). Protein samples were mixed with 4×LDS loading buffer with 2.5% 2-mercaptoethanol (Sigma-Aldrich), heated to 70° C. for 10 minutes, and loaded on NuPAGE 4-12% Bis-Tris gel (Invitrogen, Carlsbad, Calif.). Immunoblotting was performed with nitrocellulose membranes (Bio-Rad, Hercules, Calif.) at 170-mA start and 110-mA end at 25 V for two hours in NuPAGE transfer buffer (Invitrogen) containing 20% methanol. Membranes were blocked using Odyssey blocking buffer (LI-COR; Lincoln, Nebr.) for one hour at room temperature with gentle shaking Membranes were then incubated at 4° C. with specific primary antibodies (1:1000) overnight. Cellular protein was normalized using rabbit-GAPDH or mouse-α-Tubulin [1:20,000] (Cell Signaling, Danvers, Mass.; LI-COR, respectively). […] Dual-channel infrared scan and quantitation of immunoblots were conducted using the ODYSSEY Sa infrared imaging system with Image Studio (Ver. 3.1.4) (LI-COR). […]

[4] = system: UM tumor cell lines; test: Total cell numbers in UM cultures

In the case of `COc1cc(C2OC(=O)Nc3c2ccc2ccccc32)cc(OC)c1OC` (stereo not drawn) [compound II-4], the “VEGF-induced REC proliferation (FIG. 21)” value ([1]; Compound (II-4) (500 nM), LY294002 (1004), SU6656 (104), U0126 (104) [sic]) is reported as “inhibited”, the “VEGF-induced cellular proliferation (WST-1)” value ([1]; increasing concentrations of compound (II-4)) is reported as “significant decrease; also recorded: significantly reduces cellular proliferation” and the “spontaneous apoptosis in REC (PI and Annexin V)” value ([2]; 1 μM for 4-hrs) is reported as “did not cause an increase in spontaneous apoptosis”. For the same compound, the “apoptosis / cytotoxicity in REC (Annexin-V/PI)” value ([2]; 1 μM for 24 hours) was “No evidence of apoptosis was detected; also recorded: non-cytotoxic”, the “VEGF-induced FAK activation (Y397, Y925)” value [3] was “independent of both FAK Y397 autophosphorylation and Src-driven FAK Y925; also recorded: not FAK Y925 activation” and the “total cell numbers compared to untreated cultures” value [4] was “reduction in total cell numbers”.
